Measurements as given in US5071849A, “Dihydropyrimidothiazine derivatives” (priority 1989, dated 1991).
Like-named read-outs stand apart in the source and are kept apart here.

What was measured:
in vivo = conditions: mouse, po
Method: White mice belonging to the CFLP strain (body weight 18-22 g; both male and female) are used, 10 animals for each dose. The test compound is administered orally in a volume of 20 ml/kg. […] The mice are kept in a plastic cage at room temperature. The animals get tap water and standard mouse fodder ad libitum.

[1] = system: carrageen - induced oedema; assay: Inhibition of carrageen-induced oedema on rats; assay type: in vivo; conditions: for ED30: Rattus norvegicus, po, read-out: ID30 (dose resulting in an inhibition of 30%); for Therapeutical index: Table III, LD50 and ID30
Method: The antiinflammatory effect of the novel compounds of the invention was investigated on rats weighing 150 to 180 g. 0.1 ml of a 1 per cent carrageen suspension was injected subcutaneously into the plantar region of one of the hind paws. Rats were fasted for 12 hours and received drinking water ad libitum. One hour before treatment with the test compound animals were hydrated orally with 30 ml/kg of tap water. The test compounds or the vehicle were administered p.o. in a volume of 10 ml/kg, then two hours later carrageen was applied. The volume of the treated paw was measured by mercury-plethysmometer before and 3 hours after injection in such a way that displacement of the liquid arising from the volume alteration was indicated on a millimeter scale. The volumes of the treated paws were compared with those of the control group.

[2] = system: experimental coronaria insufficiency induced with vasopressin; assay: Antianginal effect: vasopressin-induced experimental coronaria insufficiency, ECG wave T; assay type: in vivo; conditions: Rattus norvegicus; rats, iv., 2 minutes prior to vasopressin
Method: Male rats of 180-220 g body weight were narcotised with chloralese-urethane (70/700 mg/kg ip.). The ECG was registered with needle electrodes in standard II leading. The experimental coronaria insufficiency was induced with vasopressin (4 NE/kg i.v.). The height of wave T in ECG was measured before and after the administration of vasopressin in both the control and treated groups. Test compounds were administered intravenously 2 minutes prior to the treatment with vasopressin.

Hexobarbital narcosis = Hexobarbital narcosis on mice; assay type: in vivo; conditions: for ED50: Mus musculus, po, mice, p.o., 1 hour before Hexobarbital 40 mg/kg i.v., sleeping time more than 2.5 times longer than control; for Therapeutical index: Table IV, hexobarbital narcosis on mice
Method: Groups consisting of 6 mice are used for each dose. The animals are treated orally with the test compound, whereby sleeping is induced 1 hour later by administering a 40 mg/kg i.v. dose of Hexobarbital both to the test and control groups.
ED50 values are calculated from the thus-transformed data.

[3] = rats, p.o., two hours before carrageen, paw volume 3 hours after injection

SMILES	LD50 at 336 h (in vivo) [mg/kg]	ED30 [1, 3] [mg/kg]	Therapeutical index [1]	also measured
COC(=O)C1=C(C)N=C2SCCCN2C1c1cc(OC)c(OC)c(OC)c1 (stereo not drawn) [Example 18, Methyl-[8-methyl-6-(3,4,5-trimethoxyphenyl)-3,4-dihydro-2H,6H-pyrimido[2,1-b][1,3]thiazine-7-carboxylate]]	> 1000	110	> 9.1	–
COC(=O)C1=C(C)N=C2SCCCN2C1C (stereo not drawn) [Example 14, Methyl-(6,8-dimethyl-3,4-dihydro-2H,6H-pyrimido-[2,1-b][1,3]thiazine-7-carboxylate)]	400	10	40	–
COC(=O)C1=C(C)N=C2SCCCN2C1c1cccc([N+](=O)[O-])c1 (stereo not drawn) [Example 4, Methyl-[6-(3-nitrophenyl)-8-methyl-3,4-dihydro-2H,6H-pyrimido[2,1-b][1,3]thiazine-7-carboxylate]]	370	–	–	–
CC(Cc1ccccc1)NCCC(c1ccccc1)c1ccccc1 (stereo not drawn) [Prenylamine, reference compound]	–	–	–	ED50 [2]: 6.5 mg/kg
CCOC(=O)C1=C(C)N=C2SCCCN2C1c1ccccc1 (stereo not drawn) [Example 1, Ethyl-(6-phenyl-8-methyl-3,4-dihydro-2H,6H-pyrimido-[2,1-b][1,3]thiazine-7-carboxylate)]	580	–	–	–
CCOC(=O)C1=C(C)N=C2SCCCN2C1c1ccc(OC)cc1 (stereo not drawn) [Example 7, Ethyl-[8-methyl-6-(4-methoxyphenyl)-3,4-dihydro2H,6H-pyrimido[2,1-b][1,3]thiazine-7-carboxylate]]	600	–	–	ED50 [2]: 1.87 mg/kg
CC(=O)Nc1ccc(O)cc1 [Paracetamol, reference compound]	1180	200	5.9	–
COc1ccc2c(c1)c(CC(=O)O)c(C)n2C(=O)c1ccc(Cl)cc1 [Indomethacin, reference compound]	–	–	7.3	ED30 ([1]; 3 h): 3 mg/kg
CCOC(=O)C1=C(C)N=C2SCCCN2C1c1c(F)cccc1Cl (stereo not drawn) [Example 2, Ethyl-[6-(2-fluoro-6-chlorophenyl)-8-methyl-3,4-dihydro-2H,6H-pyrimido[2,1-b][1,3]thiazine-7-carboxylate]]	170	–	–	–
CCOC(=O)C1=C(c2ccccc2)N=C2SCCCN2C1c1ccc(OC)cc1 (stereo not drawn) [Example 19, Ethyl-[8-phenyl-6-(4-methoxyphenyl)-3,4-dihydro-2H,6H-pyrimido[2,1-b][1,3]thiazine-7-carboxylate]]	–	–	–	ED50 [2]: 1.45 mg/kg
COC(=O)C1=C(C)N=C2SCC(C)CN2C1c1cccc([N+](=O)[O-])c1 (stereo not drawn) [Example 10]	> 1000	–	–	ED50 (Hexobarbital narcosis): 39 mg/kg; Therapeutical index (Hexobarbital narcosis): 25.6
CCOC(=O)C1=C(c2ccccc2)N=C2SCCCN2C1c1ccc([N+](=O)[O-])cc1 (stereo not drawn) [Example 13, Ethyl-[8-phenyl-6-(4-nitrophenyl)-3,4-dihydro-2H,6H-pyrimido[2,1-b][1,3]thiazine-7-carboxylate]]	1000	–	–	ED50 (Hexobarbital narcosis): ~200 mg/kg; Therapeutical index (Hexobarbital narcosis): 5.0
COC(=O)C1=C(C)N=C2SCCCN2C1c1ccccc1OC (stereo not drawn) [Example 25, Methyl-[8-methyl-6-(2-methoxyphenyl)-3,4-dihydro-2H,6H-pyrimido[2,1-b][1,3]thiazine-7-carboxylate]]	100 to 500	10	10-50	–
COC(=O)C1=C(C)N=C2SCCCN2C1c1ccc(OC)cc1 (stereo not drawn) [Example 15, Methyl-[8-methyl-6-(4-methoxyphenyl)-3,4-dihydro-2H,6H-pyrimido[2,1-b][1,3]thiazine-7-carboxylate]]	> 1000	70	> 14.3	–
COC(=O)C1=C(C)N=C2SCC(C)CN2C1c1ccc(Cl)c([N+](=O)[O-])c1 (stereo not drawn) [Example 9]	> 1000	–	–	–
CCOC(=O)C1=C(C)N=C2SCCCN2C1c1ccc(Cl)c(Cl)c1 (stereo not drawn) [Example 3, Ethyl-[6-(3,4-dichlorophenyl)-8-methyl-3,4-dihydro-2H,6H-pyrimido[2,1-b][1,3]thiazine-7-carboxylate]]	1000	–	–	–
CCOC(=O)C1=C(C)N=C2SCCCN2C1c1ccc(Br)cc1 (stereo not drawn) [Example 11, Ethyl-[6-(4-bromophenyl)-8-methyl-3,4-dihydro-2H,6H-pyrimido[2,1-b][1,3]thiazine-7-carboxylate]]	> 1000	–	–	ED50 (Hexobarbital narcosis): ~200 mg/kg; Therapeutical index (Hexobarbital narcosis): 5.0
COC(=O)C1=C(C)N=C2SCCCN2C1c1ccc(Cl)c(Cl)c1 (stereo not drawn) [Example 16, Methyl-[6-(3,4-dichlorophenyl)-8-methyl-3,4-dihydro-2H,6H-pyrimido[2,1-b][1,3]thiazine-7-carboxylate]]	1000	120	8.3	ED50 [2]: ~0.81 mg/kg
CC(=O)Oc1ccccc1C(=O)O [Acetylsalicylic acid, reference compound]	–	–	6.8	ED30 ([1]; 3 h): 200 mg/kg
CCCCC1C(=O)N(c2ccccc2)N(c2ccccc2)C1=O [Phenylbutazone, reference compound]	–	40	–	–
CC1=C(C(=O)Nc2ccccc2)C(c2ccccc2)N2CCCSC2=N1 (stereo not drawn) [Example 5, 6-Phenyl-8-methyl-3,4-dihydro-2H,6H-pyrimido[2,1-b][1,3]thiazine-7-carboxylic anilide]	700	–	–	–
CCOC(=O)C1=C(c2ccccc2)N=C2SCCCN2C1c1c(F)cccc1Cl (stereo not drawn) [Example 12]	> 1000	–	–	–
CCOC(=O)C1=C(C)N=C2SCCCN2C1c1ccc(N(C)C)cc1 (stereo not drawn) [Example 22, Ethyl-[6-(4-dimethylaminophenyl)-8-methyl-3,4-dihydro-2H,6H-pyrimido[2,1-b][1,3]thiazine-7-carboxylate]]	700	10	70	–
CC1=C(C(=O)Nc2ccccc2)C(c2c(F)cccc2Cl)N2CCCSC2=N1 (stereo not drawn) [Example 6, 6-(2-Fluoro-6-chlorophenyl)-8-methyl-3,4-dihydro-2H,6H-pyrimido[2,1-b][1,3]thiazine-7-carboxylic anilide]	> 1000	–	–	ED50 (Hexobarbital narcosis): 25 mg/kg; Therapeutical index (Hexobarbital narcosis): 40.0
COC(=O)C1=C(C)N=C2SCCCN2C1c1ccc(Cl)c([N+](=O)[O-])c1 (stereo not drawn) [Example 8]	700	–	–	ED50 [2]: 1.21 mg/kg
CCCC(C)(COC(N)=O)COC(N)=O [Meprobamate, reference compound]	–	–	–	ED50 (Hexobarbital narcosis): 260 mg/kg; Therapeutical index (Hexobarbital narcosis): 4.2
